Data: patent US8883833B2, “Substituted benzoazole PDE4 inhibitors for treating inflammatory, cardiovascular and CNS disorders” (Decode Genetics EHF, priority 2007, dated 2014)

Assays:
[1] = system: rats; conditions: cited from earlier work
[2] = system: rodent models; conditions: multiple rodent models; cited from earlier work
[3] = system: primates; conditions: cited from earlier work
[4] = system: mice; conditions: two separate studies in mice in vivo; cited from earlier work
[5] = system: rat model of Huntington's disease; conditions: cited from earlier work
[6] = system: human; conditions: human clinical trials; cited from earlier work
[7] = system: patients suffering from asthma and COPD; conditions: cited from earlier work; for results of administration to patients: asthma and COPD patients, initial
[8] = molecular target: h4B1 (Homo sapiens, UniProt Q07343); test: In-vitro assay for PDE4 enzymes, real-time enzyme-coupled spectrophotometric assay (Table 3); assay type: biochemical
h4B1, sequence (Q07343 whole entry): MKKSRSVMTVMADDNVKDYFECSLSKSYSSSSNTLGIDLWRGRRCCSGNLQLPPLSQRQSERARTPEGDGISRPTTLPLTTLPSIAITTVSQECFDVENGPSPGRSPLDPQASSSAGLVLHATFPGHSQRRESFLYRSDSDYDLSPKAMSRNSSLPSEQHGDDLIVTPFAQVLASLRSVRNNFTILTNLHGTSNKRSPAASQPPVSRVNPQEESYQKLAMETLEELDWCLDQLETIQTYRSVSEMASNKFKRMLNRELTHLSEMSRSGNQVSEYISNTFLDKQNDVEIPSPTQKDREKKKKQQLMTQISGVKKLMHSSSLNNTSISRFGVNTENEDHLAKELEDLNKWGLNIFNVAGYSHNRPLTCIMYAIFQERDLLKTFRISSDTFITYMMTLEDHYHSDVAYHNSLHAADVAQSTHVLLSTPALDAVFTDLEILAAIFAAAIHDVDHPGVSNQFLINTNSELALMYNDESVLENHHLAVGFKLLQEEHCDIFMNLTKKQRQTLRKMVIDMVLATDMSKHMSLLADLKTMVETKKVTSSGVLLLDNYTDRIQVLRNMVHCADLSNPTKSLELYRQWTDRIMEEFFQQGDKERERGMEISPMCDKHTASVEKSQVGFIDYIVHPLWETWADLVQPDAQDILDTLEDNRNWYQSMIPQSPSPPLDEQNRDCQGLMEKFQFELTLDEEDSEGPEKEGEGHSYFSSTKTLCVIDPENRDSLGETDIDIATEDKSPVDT
Description: (§1) In-vitro assay for PDE4 enzymes. The in-vitro activity of PDE4 enzymes and the in-vitro potency of therapeutic agents described in the present invention was measured using a real-time, enzyme-coupled spectrophotometric assay. By using three different coupling enzymes, the product of the PDE4 reaction is coupled to the oxidation of the reduced form β-nicotinamide adenine dinucleotide (NADH), which dissipation can be monitored spectrophotmetrically at […]. Assay description. Buffer A containing 50 mM Tris, pH 8.0, 16 mM MgCl2 and 80 mM KCl is prepared and stored at room temperature. Buffer B containing 50 mM Tris, pH 8.0 is prepared and stored at toom temperature. Stock solutions of the following reagents are prepared in Buffer B and stored at −20° C.: Adenosine-5′-triphosphate (ATP), cyclic adenosine-5′-monophosphate (cAMP), phosphoenolpyruvate (PEP) and NADH. An assay mix is prepared by mixing Buffer A, […] (TCEP), ATP, PEP, NADH, myokinase (MK), pyruvate kinase (PK), lactate dehydroganese (LDH) and PDE4 to a final volume of 20 mL, which is enough for a single 96-well assay plate. Assay mix (180 μL) and test article (10 μL) in 1:1 DMSO/H2O mixture is pre-incubated at room temperature for 10 min. The enzymatic reaction is initiated by addition of cAMP (10 μL). Final concentration of all components in the assay (200 μL/well) are as follows: 10 mM MgCl2, 50 mM KCl, 5 mM TCEP, 2.5% DMSO, 0.4 mM NADH, 1 mM PEP, 0.04 mM ATP, 5 units MK, 1 unit PK, 1 unit LDH and appropriate amount of PDE4. Reaction progress curves are monitored in a plate reader capable of measuring light absorbance at 340 nm. A decrease in light absorbance at 340 nm is due to oxidation of NADH. Positive controls containing no test article and negative controls containing no test article and no cAMP are included on every assay plate. Reaction rates are determined from the slopes of the linear portions of the progress curves. All data is percent normalized with respect to controls and presented as percent inhibition.

[9] = molecular target: h4D7 (Homo sapiens, UniProt Q08499); test: as above; assay type: biochemical
h4D7, sequence (Q08499 1-748 isoform Q08499-11): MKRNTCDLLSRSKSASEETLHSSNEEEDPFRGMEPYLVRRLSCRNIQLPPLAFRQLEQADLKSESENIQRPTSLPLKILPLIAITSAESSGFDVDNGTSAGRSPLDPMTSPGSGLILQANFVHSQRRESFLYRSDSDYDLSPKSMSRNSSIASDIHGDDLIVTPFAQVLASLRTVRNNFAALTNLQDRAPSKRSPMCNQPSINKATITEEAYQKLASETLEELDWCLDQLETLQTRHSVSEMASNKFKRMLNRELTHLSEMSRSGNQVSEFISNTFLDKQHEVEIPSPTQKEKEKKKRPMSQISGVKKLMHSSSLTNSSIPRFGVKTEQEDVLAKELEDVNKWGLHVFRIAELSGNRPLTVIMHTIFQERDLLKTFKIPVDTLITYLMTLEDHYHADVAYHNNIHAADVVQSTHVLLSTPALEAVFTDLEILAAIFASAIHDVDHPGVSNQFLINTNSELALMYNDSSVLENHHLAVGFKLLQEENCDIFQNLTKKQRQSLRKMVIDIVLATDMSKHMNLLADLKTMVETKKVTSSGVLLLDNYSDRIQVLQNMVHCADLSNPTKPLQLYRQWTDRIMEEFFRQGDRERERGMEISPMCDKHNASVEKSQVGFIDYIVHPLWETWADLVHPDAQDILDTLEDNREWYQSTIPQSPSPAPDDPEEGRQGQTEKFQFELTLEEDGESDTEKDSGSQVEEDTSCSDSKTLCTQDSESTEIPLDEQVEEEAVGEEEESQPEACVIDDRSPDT
Description: as §1

[10] = system: rat model; conditions: rat model in vivo; cited from earlier work

IC50 [8] | IC50 [9] | Compound | further results
– | – | CCc1ccc2c(-c3cccc(Cl)c3)nc(=O)n(CC)c2n1 [YM976] | effects of experimentally-induced interstitial cystitis [1]: ameliorate the effects; frequency of urination [1]: decrease; volume of urine at each time of urination [1]: increase
– | – | COc1ccc(C2CNC(=O)C2)cc1OC1CCCC1 (stereo not drawn) [Rolipram] | cognition [2]: enhance cognition; cognition [3]: enhance cognition; outcome in schizophrenia models [4]: improves the outcome; neuroprotection [5]: neuroprotective effect; depression [6]: ameliorate depression
– | – | O=C(Nc1c(Cl)cncc1Cl)c1ccc(OC(F)F)c(OCC2CC2)c1 [roflumilast] | results of administration to patients [7]: initially excellent results
1000 to 10000 nM | < 1000 nM | CCOC(=O)NC1CCN(Cc2cc3scnc3c(-c3cccc(Cl)c3)c2F)CC1 [Example 45, {1-[4-(3-Chloro-phenyl)-5-fluoro-benzothiazol-6-ylmethyl]-piperidin-4-yl}-carbamic acid ethyl ester] | –
1000 to 10000 nM | < 1000 nM | CS(=O)(=O)Nc1ccc(Cc2cc(-c3cccc(Cl)c3)c3nc(N)sc3c2)cc1 [Example 18, N-{4-[2-Amino-4-(3-chloro-phenyl)-benzothiazol-6-ylmethyl]-phenyl}-methanesulfonamide] | –
< 1000 nM | < 1000 nM | Nc1ccc(Cc2cc3sc(N)nc3c(-c3cccc([N+](=O)[O-])c3)c2O)cc1 [Example 15, 2-Amino-6-(4-amino-benzyl)-4-(3-nitro-phenyl)-benzothiazol-5-ol] | –
< 1000 nM | < 1000 nM | CCNC(=O)Nc1ccc(Cc2cc3scnc3c(-c3cccc(Cl)c3)c2F)cc1 [Example 30, 1-{4-[4-(3-chloro-phenyl)-5-fluoro-benzothiazol-6-ylmethyl]-phenyl}-3-ethyl-urea] | –
1000 to 10000 nM | < 1000 nM | Nc1nc2c(-c3cccc(Br)c3)cc(Cc3ccc(F)cc3)cc2s1 [Example 13, 4-(3-bromophenyl)-6-(4-fluorobenzyl)-1,3-benzothiazol-2-amine] | –
– | – | COc1ccc([C@]2(C#N)CC[C@@H](C(=O)O)CC2)cc1OC1CCCC1 [cilomilast] | results of administration to patients [7]: initially excellent results; effect on long-term trial ([7]; long-term trial): disappeared
– | – | Cc1noc(/C(=C/c2cccc(-c3cc(C(C)(C)S(C)(=O)=O)cc4cccnc34)c2)c2ccc(S(C)(=O)=O)cc2)n1 [L-454,560] | learning [10]: improve learning
1000 to 10000 nM | < 1000 nM | CC(=O)c1cccc(-c2cc(Cn3cccn3)cc3sc(N)nc23)c1 [Example 12, 1-[3-(2-Amino-6-pyrazol-1-ylmethyl-benzothiazol-4-yl)-phenyl]-ethanone] | –
1000 to 10000 nM | < 1000 nM | Cn1nccc1Cc1cc(-c2ccc3c(c2)OCO3)c2nc(N)sc2c1 [Example 8, 4-Benzo[1,3]dioxol-5-yl-6-(2-methyl-2H-pyrazol-3-ylmethyl)-benzothiazol-2-ylamine] | –
> 30000 nM | < 1000 nM | CCOC(=O)Nc1ccc(Cc2cc3scnc3c(-c3cccc(Cl)c3)c2F)cn1 [Example 40, {5-[4-(3-chloro-phenyl)-5-fluoro-benzothiazol-6-ylmethyl]-pyridin-2-yl}-carbamic acid ethyl ester] | –
< 1000 nM | < 1000 nM | Nc1ccc(Cc2cc(-c3cccc(Cl)c3)c3ncsc3c2)cc1 [Example 25, 4-[4-(3-Chloro-phenyl)-benzothiazol-6-ylmethyl]-phenylamine] | –
1000 to 10000 nM | < 1000 nM | CSc1cccc(-c2cc(Cn3cccn3)cc3sc(N)nc23)c1 [Example 14, 4-(3-Methylsulfanyl-phenyl)-6-pyrazol-1-ylmethyl-benzothiazol-2-ylamine] | –
< 1000 nM | < 1000 nM | Cc1nc2c(-c3cccc(Cl)c3)cc(Cc3ccc(NC(N)=O)cc3)cc2o1 [Example 24, N-(4-{[4-(3-chlorophenyl)-2-methyl-1,3-benzoxazol-6-yl]methyl}phenyl)urea] | –
1000 to 10000 nM | < 1000 nM | Nc1nc2c(-c3cccc([N+](=O)[O-])c3)cc(Cc3ccc(F)cc3)cc2s1 [Example 1, 6-(4-fluorobenzyl)-4-(3-nitrophenyl)-benzothiazol-2-yl amine] | –
1000 to 10000 nM | < 1000 nM | Oc1cccc(Cc2cc3scnc3c(-c3cccc(Cl)c3)c2F)c1 [Example 39, 3-[4-(3-chloro-phenyl)-5-fluoro-benzothiazol-6-ylmethyl]-phenol] | –
< 1000 nM | < 1000 nM | NC(=O)Nc1ccc(Cc2cc3sc(N)nc3c(-c3cccc(Cl)c3)c2F)cc1 [Example 21, {4-[2-amino-4-(3-chloro-phenyl)-5-fluoro-benzothiazol-6-ylmethyl]-phenyl}-urea] | –
< 1000 nM | < 1000 nM | Nc1ccc(Cc2cc(-c3cccc(Cl)c3)c3nc(N)sc3c2)cc1 [Example 26, 6-(4-Amino-benzyl)-4-(3-chloro-phenyl)-benzothiazol-2-ylamine] | –
